Target: T1, M2 (Homo sapiens, UniProt P08172)
T1 construct: expressed in transfected cells; host or cells: CHO
T1 sequence (P08172 1-466): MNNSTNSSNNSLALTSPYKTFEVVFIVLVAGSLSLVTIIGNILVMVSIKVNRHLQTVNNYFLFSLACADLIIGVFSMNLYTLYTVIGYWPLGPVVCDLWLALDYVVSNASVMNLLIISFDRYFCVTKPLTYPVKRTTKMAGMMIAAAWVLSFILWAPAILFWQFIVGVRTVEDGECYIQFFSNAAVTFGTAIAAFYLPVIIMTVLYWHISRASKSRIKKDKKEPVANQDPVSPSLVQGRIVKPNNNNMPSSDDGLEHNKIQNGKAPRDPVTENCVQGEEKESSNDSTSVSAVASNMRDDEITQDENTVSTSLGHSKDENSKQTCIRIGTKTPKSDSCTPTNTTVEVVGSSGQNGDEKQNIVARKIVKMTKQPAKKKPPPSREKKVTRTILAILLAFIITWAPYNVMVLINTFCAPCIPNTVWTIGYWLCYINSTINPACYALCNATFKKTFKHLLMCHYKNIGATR
Assay: Bioprofiling 6pt Ag M2 CHO
Assay type: cell-based
Settings: agonist readout
Protocol: (§1) The compounds were evaluated across a panel of 20 liability targets (37 functional assays) which included functional cell-based GPCRs and ion channels in both agonist and antagonist readout, measuring calcium flux and biochemical functional assays for nuclear hormone receptors and phosphodiesterases using TR-FRET format, in a 6 point 1:3 dilution dose series (maximum final concentration of 10 μM).
Compound Cn1nc(C(F)(F)F)cc1C(=O)Nc1nc2ccc(C#N)cc2n1CC(F)(F)F [Compound 39, O=C(c1cc(C(F)(F)F)nn1C)Nc2nc(ccc(C#N)c3)c3n2CC(F)(F)F] has an EC50 of over 10 µM. In the case of COc1ccc(C(=O)Nc2nc3ccc(C#N)cc3n2CC(F)(F)F)cn1 [Compound 43, O=C(c1ccc(OC)nc1)Nc2nc(ccc(C#N)c3)c3n2CC(F)(F)F], the EC50 is reported as over 10 µM. Cn1nccc1C(=O)Nc1nc2ccc(C#N)cc2n1CC(F)(F)F [Compound 30, O=C(c1ccnn1C)Nc2nc(ccc(C#N)c3)c3n2CC(F)(F)F] showed an EC50 of over 10 µM.

Target: T2, Beta1 (Homo sapiens, UniProt P08588)
T2 construct: expressed in transfected cells; host or cells: CHO
T2 sequence (P08588 whole entry): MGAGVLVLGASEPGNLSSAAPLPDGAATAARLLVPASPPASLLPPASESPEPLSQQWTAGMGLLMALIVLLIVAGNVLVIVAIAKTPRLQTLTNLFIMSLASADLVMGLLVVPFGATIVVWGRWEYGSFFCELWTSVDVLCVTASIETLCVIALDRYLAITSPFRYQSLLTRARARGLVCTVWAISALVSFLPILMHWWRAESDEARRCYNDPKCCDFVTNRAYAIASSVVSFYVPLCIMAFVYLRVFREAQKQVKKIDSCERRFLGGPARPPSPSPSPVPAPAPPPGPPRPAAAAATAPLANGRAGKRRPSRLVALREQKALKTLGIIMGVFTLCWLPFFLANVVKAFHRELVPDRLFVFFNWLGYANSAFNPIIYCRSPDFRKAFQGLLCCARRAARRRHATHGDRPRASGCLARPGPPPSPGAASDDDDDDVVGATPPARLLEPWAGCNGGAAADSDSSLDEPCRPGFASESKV
Assay: Bioprofiling 6pt Antag Beta1 CHO
Assay type: cell-based
Settings: antagonist readout vs Norepinephrine
Protocol: as §1
For Cn1nc(C(F)(F)F)cc1C(=O)Nc1nc2ccc(C#N)cc2n1CC(F)(F)F [Compound 39, O=C(c1cc(C(F)(F)F)nn1C)Nc2nc(ccc(C#N)c3)c3n2CC(F)(F)F], the IC50 was over 10 µM. COc1ccc(C(=O)Nc2nc3ccc(C#N)cc3n2CC(F)(F)F)cn1 [Compound 43, O=C(c1ccc(OC)nc1)Nc2nc(ccc(C#N)c3)c3n2CC(F)(F)F] showed an IC50 of over 10 µM. In the case of Cn1nccc1C(=O)Nc1nc2ccc(C#N)cc2n1CC(F)(F)F [Compound 30, O=C(c1ccnn1C)Nc2nc(ccc(C#N)c3)c3n2CC(F)(F)F], the IC50 is reported as over 10 µM.

Target: T3, 5-HT2A (Homo sapiens, UniProt P28223)
T3 construct: expressed in transfected cells; host or cells: CHO
T3 sequence (P28223 whole entry): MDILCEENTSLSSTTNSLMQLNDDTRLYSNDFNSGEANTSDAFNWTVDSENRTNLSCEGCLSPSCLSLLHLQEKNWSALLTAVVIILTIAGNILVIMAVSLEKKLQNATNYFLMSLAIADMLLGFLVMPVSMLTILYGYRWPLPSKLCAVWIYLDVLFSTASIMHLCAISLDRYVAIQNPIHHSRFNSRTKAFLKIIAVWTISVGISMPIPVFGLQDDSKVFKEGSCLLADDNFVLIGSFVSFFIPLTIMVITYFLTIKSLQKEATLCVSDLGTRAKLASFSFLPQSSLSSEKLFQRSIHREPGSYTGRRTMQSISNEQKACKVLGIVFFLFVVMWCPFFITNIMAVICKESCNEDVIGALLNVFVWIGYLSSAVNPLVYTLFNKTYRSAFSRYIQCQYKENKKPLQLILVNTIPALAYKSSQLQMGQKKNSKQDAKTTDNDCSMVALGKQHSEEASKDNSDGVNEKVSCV
Assay: Bioprofiling 6pt Antag 5-HT2A CHO
Assay type: cell-based
Settings: antagonist readout vs Serotonin (5-HT)
Protocol: as §1
Cn1nc(C(F)(F)F)cc1C(=O)Nc1nc2ccc(C#N)cc2n1CC(F)(F)F [Compound 39, O=C(c1cc(C(F)(F)F)nn1C)Nc2nc(ccc(C#N)c3)c3n2CC(F)(F)F] gave an IC50 of over 10 µM. With COc1ccc(C(=O)Nc2nc3ccc(C#N)cc3n2CC(F)(F)F)cn1 [Compound 43, O=C(c1ccc(OC)nc1)Nc2nc(ccc(C#N)c3)c3n2CC(F)(F)F] the IC50 was over 10 µM. With Cn1nccc1C(=O)Nc1nc2ccc(C#N)cc2n1CC(F)(F)F [Compound 30, O=C(c1ccnn1C)Nc2nc(ccc(C#N)c3)c3n2CC(F)(F)F] the IC50 was over 10 µM.

Target: T4, Opioid mu (Homo sapiens, UniProt P35372)
T4 construct: expressed in transfected cells; host or cells: CHO
T4 sequence (P35372 whole entry): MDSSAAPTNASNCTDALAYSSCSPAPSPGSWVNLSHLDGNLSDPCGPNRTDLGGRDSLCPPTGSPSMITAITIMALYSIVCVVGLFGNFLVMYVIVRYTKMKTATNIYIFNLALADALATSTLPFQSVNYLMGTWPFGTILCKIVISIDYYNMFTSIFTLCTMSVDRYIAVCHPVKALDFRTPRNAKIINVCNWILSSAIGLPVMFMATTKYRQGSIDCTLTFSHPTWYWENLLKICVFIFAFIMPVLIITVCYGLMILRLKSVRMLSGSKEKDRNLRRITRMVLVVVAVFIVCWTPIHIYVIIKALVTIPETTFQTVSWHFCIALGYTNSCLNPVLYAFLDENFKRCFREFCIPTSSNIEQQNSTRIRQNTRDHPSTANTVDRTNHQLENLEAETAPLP
Assay: Bioprofiling 6pt Antag Opioid mu CHO
Assay type: cell-based
Settings: antagonist readout vs DAMGO
Protocol: as §1
Work on Cn1nc(C(F)(F)F)cc1C(=O)Nc1nc2ccc(C#N)cc2n1CC(F)(F)F [Compound 39, O=C(c1cc(C(F)(F)F)nn1C)Nc2nc(ccc(C#N)c3)c3n2CC(F)(F)F] yielded an IC50 of over 10 µM. With COc1ccc(C(=O)Nc2nc3ccc(C#N)cc3n2CC(F)(F)F)cn1 [Compound 43, O=C(c1ccc(OC)nc1)Nc2nc(ccc(C#N)c3)c3n2CC(F)(F)F] the IC50 was over 10 µM. Compound Cn1nccc1C(=O)Nc1nc2ccc(C#N)cc2n1CC(F)(F)F [Compound 30, O=C(c1ccnn1C)Nc2nc(ccc(C#N)c3)c3n2CC(F)(F)F] has an IC50 of over 10 µM.

Target: T5, Alpha1A (Homo sapiens, UniProt P35348)
T5 construct: expressed in transfected cells; host or cells: CHO
T5 sequence (P35348 1-466): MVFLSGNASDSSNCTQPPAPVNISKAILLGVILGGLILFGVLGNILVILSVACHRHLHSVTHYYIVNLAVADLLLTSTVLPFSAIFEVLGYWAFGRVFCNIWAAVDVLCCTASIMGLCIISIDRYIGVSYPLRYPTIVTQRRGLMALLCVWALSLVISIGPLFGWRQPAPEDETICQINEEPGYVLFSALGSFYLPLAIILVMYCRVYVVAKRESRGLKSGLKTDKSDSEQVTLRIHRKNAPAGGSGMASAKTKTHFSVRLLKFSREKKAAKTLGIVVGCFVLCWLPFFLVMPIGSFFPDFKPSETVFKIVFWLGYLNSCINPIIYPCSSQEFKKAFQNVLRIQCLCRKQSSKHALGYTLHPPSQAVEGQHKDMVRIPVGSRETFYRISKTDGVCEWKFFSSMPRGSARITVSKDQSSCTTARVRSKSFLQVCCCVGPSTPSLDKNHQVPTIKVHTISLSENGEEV
Assay: Bioprofiling 6pt Ag Alpha1A CHO
Assay type: cell-based
Settings: agonist readout
Protocol: as §1
Cn1nc(C(F)(F)F)cc1C(=O)Nc1nc2ccc(C#N)cc2n1CC(F)(F)F [Compound 39, O=C(c1cc(C(F)(F)F)nn1C)Nc2nc(ccc(C#N)c3)c3n2CC(F)(F)F] gave an EC50 of over 10 µM. With COc1ccc(C(=O)Nc2nc3ccc(C#N)cc3n2CC(F)(F)F)cn1 [Compound 43, O=C(c1ccc(OC)nc1)Nc2nc(ccc(C#N)c3)c3n2CC(F)(F)F] the EC50 was over 10 µM. Cn1nccc1C(=O)Nc1nc2ccc(C#N)cc2n1CC(F)(F)F [Compound 30, O=C(c1ccnn1C)Nc2nc(ccc(C#N)c3)c3n2CC(F)(F)F] gave an EC50 of over 10 µM.

Target: T6, ETA (Homo sapiens, UniProt P25101)
T6 construct: expressed in transfected cells; host or cells: CHO
T6 sequence (P25101 21-427): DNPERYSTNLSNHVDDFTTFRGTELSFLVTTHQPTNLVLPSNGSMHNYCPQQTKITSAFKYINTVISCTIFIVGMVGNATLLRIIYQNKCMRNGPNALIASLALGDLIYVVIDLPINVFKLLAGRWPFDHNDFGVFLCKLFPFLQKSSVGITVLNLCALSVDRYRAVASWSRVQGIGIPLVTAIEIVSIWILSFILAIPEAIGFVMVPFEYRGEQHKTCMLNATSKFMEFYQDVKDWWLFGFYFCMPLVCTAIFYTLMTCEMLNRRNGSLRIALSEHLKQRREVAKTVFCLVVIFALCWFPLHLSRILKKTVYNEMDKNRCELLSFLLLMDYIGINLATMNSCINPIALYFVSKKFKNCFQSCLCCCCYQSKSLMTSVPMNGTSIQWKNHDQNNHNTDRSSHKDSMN
Assay: Bioprofiling 6pt Ag ETA CHO
Assay type: cell-based
Settings: agonist readout
Protocol: as §1
Cn1nc(C(F)(F)F)cc1C(=O)Nc1nc2ccc(C#N)cc2n1CC(F)(F)F [Compound 39, O=C(c1cc(C(F)(F)F)nn1C)Nc2nc(ccc(C#N)c3)c3n2CC(F)(F)F] showed an EC50 of over 10 µM. For COc1ccc(C(=O)Nc2nc3ccc(C#N)cc3n2CC(F)(F)F)cn1 [Compound 43, O=C(c1ccc(OC)nc1)Nc2nc(ccc(C#N)c3)c3n2CC(F)(F)F], the EC50 was over 10 µM. Work on Cn1nccc1C(=O)Nc1nc2ccc(C#N)cc2n1CC(F)(F)F [Compound 30, O=C(c1ccnn1C)Nc2nc(ccc(C#N)c3)c3n2CC(F)(F)F] yielded an EC50 of over 10 µM.

Test system: not listed separately
Assay: Human liver microsomal stability
Assay type: in vitro ADME
Settings: liver microsomes, pH 7.4; human liver microsome; read-out: HLM Clint
Protocol: The metabolic stability of the compounds was evaluated in human (pool of 200 donors, XenoTech) and mouse liver microsomes (CD1 mouse, GIBCO). Test compounds were prepared at a concentration of 0.5 μM and incubated with 0.25 mg/mL liver microsomes at pH 7.4 and 37°C. The reaction was started by addition of NADPH at […]. Samples were taken at 0, 5, 10, 15, 20 and 30 minutes. The reaction was stopped by the addition of acetonitrile:methanol (1:1) containing an internal standard (tolbutamide at 50 nM). Compounds were quantified by liquid chromatography triple quadrupole mass spectrometry (LC-MS/MS). Peak area ratios (analyte/internal standard) were converted to % remaining using the area ratio at time 0 as 100%. Half-life (t1/2 = ln(2)/k) in minutes and intrinsic clearance (Clint = k x 1000/(0.25)) in μL/min/mg were calculated using a non-linear regression from % remaining versus incubation time. From this plot, the slope (k) was determined. The analysis conditions were: analytical column (Gemini C18, […], Phenomenex), electrospray ionization source (ESI) in positive and negative mode, mobile phase A (water + 0.1% formic acid) and B (acetonitrile + 0.1% formic acid), flow rate of 0.7 mL/min.
In the case of Cn1nc(C(F)(F)F)cc1C(=O)Nc1nc2ccc(C#N)cc2n1CC(F)(F)F [Compound 39, O=C(c1cc(C(F)(F)F)nn1C)Nc2nc(ccc(C#N)c3)c3n2CC(F)(F)F], the microsomal CLint at 0.5 μM is reported as 20 µL/min/mg. With Cn1nccc1C(=O)Nc1nc2ccc(C#N)cc2n1CC(F)(F)F [Compound 30, O=C(c1ccnn1C)Nc2nc(ccc(C#N)c3)c3n2CC(F)(F)F] the microsomal CLint at 0.5 μM was 17 µL/min/mg.

Target: T4, Opioid mu
Assay: Bioprofiling 6pt Ag Opioid mu CHO
Assay type: cell-based
Settings: agonist readout
Protocol: as §1
Compound Cn1nc(C(F)(F)F)cc1C(=O)Nc1nc2ccc(C#N)cc2n1CC(F)(F)F [Compound 39, O=C(c1cc(C(F)(F)F)nn1C)Nc2nc(ccc(C#N)c3)c3n2CC(F)(F)F] has an EC50 of over 10 µM. Compound COc1ccc(C(=O)Nc2nc3ccc(C#N)cc3n2CC(F)(F)F)cn1 [Compound 43, O=C(c1ccc(OC)nc1)Nc2nc(ccc(C#N)c3)c3n2CC(F)(F)F] has an EC50 of over 10 µM. For Cn1nccc1C(=O)Nc1nc2ccc(C#N)cc2n1CC(F)(F)F [Compound 30, O=C(c1ccnn1C)Nc2nc(ccc(C#N)c3)c3n2CC(F)(F)F], the EC50 was over 10 µM.

Target: T7, D2L (Homo sapiens, UniProt P14416)
T7 construct: expressed in transfected cells; host or cells: CHO
T7 sequence (P14416 whole entry): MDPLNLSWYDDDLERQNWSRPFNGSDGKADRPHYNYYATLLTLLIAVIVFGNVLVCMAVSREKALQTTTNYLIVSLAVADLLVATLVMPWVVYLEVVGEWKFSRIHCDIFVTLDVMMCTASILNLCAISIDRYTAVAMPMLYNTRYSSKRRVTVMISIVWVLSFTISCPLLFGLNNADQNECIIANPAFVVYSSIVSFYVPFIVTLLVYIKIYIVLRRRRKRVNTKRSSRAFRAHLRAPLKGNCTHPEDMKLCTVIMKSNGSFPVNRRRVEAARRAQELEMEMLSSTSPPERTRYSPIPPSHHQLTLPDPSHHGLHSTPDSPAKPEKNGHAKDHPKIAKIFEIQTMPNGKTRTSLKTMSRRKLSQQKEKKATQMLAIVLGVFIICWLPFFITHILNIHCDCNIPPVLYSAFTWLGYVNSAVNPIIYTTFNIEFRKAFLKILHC
Assay: Bioprofiling 6pt Antag D2L CHO
Assay type: cell-based
Settings: antagonist readout vs Quinpirole
Protocol: as §1
In the case of Cn1nc(C(F)(F)F)cc1C(=O)Nc1nc2ccc(C#N)cc2n1CC(F)(F)F [Compound 39, O=C(c1cc(C(F)(F)F)nn1C)Nc2nc(ccc(C#N)c3)c3n2CC(F)(F)F], the IC50 is reported as over 10 µM. For COc1ccc(C(=O)Nc2nc3ccc(C#N)cc3n2CC(F)(F)F)cn1 [Compound 43, O=C(c1ccc(OC)nc1)Nc2nc(ccc(C#N)c3)c3n2CC(F)(F)F], the IC50 was over 10 µM. For Cn1nccc1C(=O)Nc1nc2ccc(C#N)cc2n1CC(F)(F)F [Compound 30, O=C(c1ccnn1C)Nc2nc(ccc(C#N)c3)c3n2CC(F)(F)F], the IC50 was over 10 µM.

Target: PDE4B2 (Homo sapiens, UniProt Q07343)
Sequence (Q07343 1-564 isoform Q07343-2): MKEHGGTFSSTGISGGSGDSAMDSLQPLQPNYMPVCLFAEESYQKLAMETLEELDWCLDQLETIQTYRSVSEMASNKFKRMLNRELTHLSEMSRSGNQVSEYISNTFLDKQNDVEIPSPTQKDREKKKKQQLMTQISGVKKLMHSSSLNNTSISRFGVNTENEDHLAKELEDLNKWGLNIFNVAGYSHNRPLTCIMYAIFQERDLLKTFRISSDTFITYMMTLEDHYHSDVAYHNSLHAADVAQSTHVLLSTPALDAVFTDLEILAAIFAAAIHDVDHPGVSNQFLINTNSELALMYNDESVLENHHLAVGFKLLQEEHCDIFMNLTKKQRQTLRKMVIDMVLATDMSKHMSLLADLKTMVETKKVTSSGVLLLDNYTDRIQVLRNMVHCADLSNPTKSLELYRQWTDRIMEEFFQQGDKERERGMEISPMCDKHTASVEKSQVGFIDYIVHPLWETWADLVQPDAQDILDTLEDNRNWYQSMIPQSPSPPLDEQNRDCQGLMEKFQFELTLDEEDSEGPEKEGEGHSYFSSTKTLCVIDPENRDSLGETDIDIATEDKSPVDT
Assay: Bioprofiling 6pt Antag PDE4B2
Assay type: biochemical
Settings: substrate cAMP
Protocol: as §1
In the case of Cn1nc(C(F)(F)F)cc1C(=O)Nc1nc2ccc(C#N)cc2n1CC(F)(F)F [Compound 39, O=C(c1cc(C(F)(F)F)nn1C)Nc2nc(ccc(C#N)c3)c3n2CC(F)(F)F], the IC50 is reported as over 10 µM. For COc1ccc(C(=O)Nc2nc3ccc(C#N)cc3n2CC(F)(F)F)cn1 [Compound 43, O=C(c1ccc(OC)nc1)Nc2nc(ccc(C#N)c3)c3n2CC(F)(F)F], the IC50 was over 10 µM. Work on Cn1nccc1C(=O)Nc1nc2ccc(C#N)cc2n1CC(F)(F)F [Compound 30, O=C(c1ccnn1C)Nc2nc(ccc(C#N)c3)c3n2CC(F)(F)F] yielded an IC50 of over 10 µM.
